Literature values, collected in US9850267B2, “Crystalline fosaprepitant dicyclohexylamine salt and its preparation” (Navinta, LLC, priority 2015, dated 2017).

Details: white to off-white amorphous powder

solubility in water: freely soluble in water
SMILES: C[C@@H](O[C@H]1OCCN(Cc2nc(O)n(P(=O)(O)O)n2)[C@H]1c1ccc(F)cc1)c1cc(C(F)(F)F)cc(C(F)(F)F)c1 [Fosaprepitant dimeglumine, fosaprepitant dimeglumine]
